# Reference: US8951397B2, “Electrophoretic analysis method” (Godo Shusei Co., Ltd., priority 2009, dated 2015)
# Target: T1, D protease (Paenibacillus polymyxa, UniProt P29148)
# Assay: not given
# Conditions: Patent Document 1; cited from earlier work
# T1 sequence (P29148 287-590): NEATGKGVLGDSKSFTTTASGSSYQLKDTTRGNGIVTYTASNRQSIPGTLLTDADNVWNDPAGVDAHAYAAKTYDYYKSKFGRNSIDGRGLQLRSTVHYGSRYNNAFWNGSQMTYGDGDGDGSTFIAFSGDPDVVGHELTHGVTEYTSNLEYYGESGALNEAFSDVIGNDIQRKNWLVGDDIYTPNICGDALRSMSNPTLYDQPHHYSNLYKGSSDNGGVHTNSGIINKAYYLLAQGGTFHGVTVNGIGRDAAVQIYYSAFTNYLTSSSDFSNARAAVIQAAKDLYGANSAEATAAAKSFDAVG
row,SMILES,Effect on D protease activity
1,[Al+3] [Al^3+],activity enhanced
2,[Ca+2] [Ca^2+],activity enhanced
3,[Fe+2] [Fe^2+],activity enhanced
4,[Mg+2] [Mg^2+],activity enhanced
5,[Mn+2] [Mn^2+],activity enhanced

# Target: T1, D protease
# Assay: Inhibition, activation and stabilization of D protease
# Format: biochemical
# Conditions: not given
SMILES,Stabilization of D protease,Activation of D protease
[Ca+2] [Ca^2+],stabilized,
[Zn+2] [zinc ion],,activation thereof requires zinc ion

# Same assay, conditions: metal chelating agents and oxidizing agents
row,SMILES,Inhibition of D protease
1,"c1ccc(-c2ccccn2)nc1 [2,2-dipyridyl]",inhibited
2,O=C1CCC(=O)N1Br [N-bromosuccinimide],inhibited
3,c1cnc2c(c1)ccc1cccnc12 [O-phenanthroline],inhibited
4,O=C(O)CC(O)(CC(=O)O)C(=O)O [citric acid],inhibited
5,II [iodine],inhibited
6,[F-].[Na+] [sodium fluoride],inhibited
